Data reported in the NIST ThermoML archive (doi:10.1016/j.jct.2016.02.014).

Assays:
[1] = 101.33 kPa, Liquid; for viscosity: Capillary tube (Ostwald / Ubbelohde) method; for mass density: Vibrating tube method
[2] = xn = mol fraction of the nth substance listed; conditions: 100 kPa, Liquid, x1 = 1; for viscosity: Capillary tube (Ostwald / Ubbelohde) method; for mass density: Vibrating tube method

CCCCn1cc[n+](C)c1.N#CN=C=[N-] [1-butyl-3-methylimidazolium dicyanamide]
[1]
Conditions	mass density [kg/m3]	viscosity [mPa·s]
273.15 K	1075.2	95.68
278.15 K	1072.13	71.85
283.15 K	1068.94	55.27
288.15 K	1065.72	43.57
293.15 K	1062.52	35.04
298.15 K	1059.33	28.5
303.15 K	1056.15	23.52
308.15 K	1052.99	19.87
313.15 K	1049.85	16.95
318.15 K	1046.72	14.61
323.15 K	1043.61	12.65
328.15 K	1040.51	–
333.15 K	1037.43	–

CCCCn1cc[n+](C)c1.N#CN=C=[N-] [1-butyl-3-methylimidazolium dicyanamide] + O=C1CCCO1
[2]
Conditions	mass density [kg/m3]	viscosity [mPa·s]
273.15 K	1075.2	95.68
283.15 K	1068.94	55.27
293.15 K	1062.52	35.04
298.15 K	1059.33	28.5
303.15 K	1056.15	23.52
313.15 K	1049.85	16.95
323.15 K	1043.61	12.65
